In patent US20080153850A1, “Adamantyl Derivates as P2x7 Receptor Antagonists” (AstraZeneca AB, priority 2004, published 2008):

Assays:
P2X7 receptor = target: T1, P2X7 receptor (Homo sapiens, UniProt Q99572); experiment: P2X7 receptor antagonist test: bbATP-induced ethidium bromide fluorescence in THP-1 cells; assay type: cell-based; conditions: 10^-5M bbATP agonist, 10^-4M ethidium bromide, 37° C. one hour, negative log of concentration reducing bbATP agonist activity by 50%
T1 construct: 200 μl of a suspension of THP-1 cells; endogenous in cells; host or cells: THP-1 cells
T1 sequence (Q99572 1-595): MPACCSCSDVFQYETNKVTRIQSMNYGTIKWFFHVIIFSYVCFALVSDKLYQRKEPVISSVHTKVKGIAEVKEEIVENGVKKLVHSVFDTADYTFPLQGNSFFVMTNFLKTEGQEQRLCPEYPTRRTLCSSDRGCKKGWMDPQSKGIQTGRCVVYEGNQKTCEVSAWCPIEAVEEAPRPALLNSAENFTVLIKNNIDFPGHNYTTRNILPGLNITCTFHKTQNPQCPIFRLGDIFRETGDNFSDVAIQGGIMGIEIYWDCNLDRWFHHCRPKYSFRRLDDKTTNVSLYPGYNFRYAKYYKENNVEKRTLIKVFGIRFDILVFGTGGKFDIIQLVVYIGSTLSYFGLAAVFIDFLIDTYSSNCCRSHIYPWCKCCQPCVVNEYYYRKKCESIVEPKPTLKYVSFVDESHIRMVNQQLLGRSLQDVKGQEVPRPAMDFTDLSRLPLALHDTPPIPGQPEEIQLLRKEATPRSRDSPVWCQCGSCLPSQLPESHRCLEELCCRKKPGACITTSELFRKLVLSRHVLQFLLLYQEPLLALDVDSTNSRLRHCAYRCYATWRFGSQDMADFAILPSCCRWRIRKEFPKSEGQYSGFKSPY
Description: Consequently, when the receptor is activated using bbATP in the presence of ethidium bromide (a fluorescent DNA probe), an increase in the fluorescence of intracellular DNA-bound ethidium bromide is observed. The increase in fluorescence can be used as a measure of P2X7 receptor activation and therefore to quantify the effect of a compound on the P2X7 receptor.
In this manner, each of the title compounds of the Examples was tested for antagonist activity at the P2X7 receptor. […] The plate was covered with a plastics sheet and incubated at 37° C. for one hour. The plate was then read in a Perkin-Elmer fluorescent plate reader, excitation 520 nm, emission 595 nm, slit widths: Ex 15 nm, Em 20 nm. For the purposes of comparison, bbATP (a P2X7 receptor agonist) and pyridoxal 5-phosphate (a P2X7 receptor antagonist) were used separately in the test as controls. From the readings obtained, a pIC50 figure was calculated for each test compound, this figure being the negative logarithm of the concentration of test compound necessary to reduce the bbATP agonist activity by 50%.

O=C(O)c1ccc(-c2ccc(Cl)c(C(=O)NCC34CC5CC(CC(C5)C3)C4)c2)cc1 [Example 1, 4′-Chloro-3′-[[(tricyclo[3.3.1.1^3,7]dec-1-ylmethyl)amino]carbonyl]-[1,1′-biphenyl]-4-carboxylic acid]
IC50 (P2X7 receptor): 316 nM

O=C(O)c1cc(C(F)(F)F)cc(-c2ccc(Cl)c(C(=O)NCC34CC5CC(CC(C5)C3)C4)c2)n1 [Example 72, 6-[4-Chloro-3-[[(tricyclo[3.3.1.1^3,7]dec-1-ylmethyl)amino]carbonyl]phenyl]-4-(trifluoromethyl)-2-pyridinecarboxylic acid]
melting point: 220 to 225 °C

CC(=O)Nc1ccc(-c2ccc(Cl)c(C(=O)NCC34CC5CC(CC(C5)C3)C4)c2)c(C)n1 [Example 73, 5-[6-(Acetylamino)-2-methyl-3-pyridinyl]-2-chloro-N-(tricyclo[3.3.1.1^3,7]dec-1-ylmethyl)-benzamide]
melting point: 172 to 177 °C
